Laboratory results taken from US11124497B1, “Inhibitors of cysteine proteases and methods of use thereof” (priority 2020, dated 2021).

Legend:
[1] = Cytotoxicity under 229E CPE assay conditions without virus infection (CellTiter Glo)
229E mPRO = 229E mPRO (Human coronavirus 229E (HCoV-229E), UniProt P0C6X1); assay: 229E mPRO enzymatic assay; assay type: biochemical, Human Coronavirus (HCov) 229E; details: read-out: 229E mPRO IC50
Description: Compounds were assayed using standard methods to assess compound activity and IC50. […] The assay buffer contained 20 mM of Tris-HCl (pH 7.3), 100 mM of NaCl, 1 mM of EDTA, 5 mM of TCEP and 0.1% BSA.
The compounds were added to an assay plate.
IC50 values of compounds were calculated with the GraphPad Prism software using the nonlinear regression model of log(inhibitor) vs. response—Variable slope (four parameters). The inhibition activity was calculated using the formula below, IC50 values was calculated using the Inhibition % data. Inhibition %=[(Sample−Average ZPE)/(Average HPE−Average ZPE)]*100%^# • ^#HEP: Hundred percent effect controls. […] Containing enzyme+substrate, no compound. • Sample: Compound activity testing wells. Containing compound+enzyme+substrate. • BG: Compound background control wells. Containing compound+substrate, no enzyme.

SARS-COV2 Mpro = SARS-COV2 Mpro (Severe acute respiratory syndrome coronavirus 2 (2019-nCoV) (SARS-CoV-2), UniProt P0DTD1); assay: COVID-19 (nCoV-2019, SARS-CoV2) Mpro enzymatic assay; assay type: biochemical; details: 25 nM Mpro, 25 μM substrate
HCoV 229E = HCoV 229E cytopathic effect (CPE) assay; assay type: cell-based, Human Coronavirus (HCov) 229E; details: unidentified human coronavirus, CellTiter Glo, read-out: 229 ECPE EC50
Description: Compounds were assayed using standard methods against multiple coronaviral strains, including HCoV 229E and OC43 strains. The antiviral activity of compounds was calculated based on the protection of the virus-induced CPE at each concentration normalized by the virus control.
Cytopathic effect (CPE) was measured by CellTiter Glo following the manufacturer's manual. The antiviral activity of compounds was calculated based on the protection of the virus-induced CPE at each concentration normalized by the virus control.

Chain of 229E mPRO (P0C6X1 2966-3267 limits assumed): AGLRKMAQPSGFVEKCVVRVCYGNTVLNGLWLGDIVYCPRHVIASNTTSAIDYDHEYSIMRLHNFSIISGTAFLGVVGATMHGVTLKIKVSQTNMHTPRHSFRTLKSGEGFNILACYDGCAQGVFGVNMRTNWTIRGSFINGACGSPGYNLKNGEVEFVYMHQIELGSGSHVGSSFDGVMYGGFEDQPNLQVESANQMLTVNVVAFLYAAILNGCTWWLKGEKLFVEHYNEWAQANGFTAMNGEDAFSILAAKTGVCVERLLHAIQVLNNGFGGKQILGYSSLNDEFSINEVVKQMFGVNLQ

Structure (SMILES)	CC50 [1]	IC50 (229E mPRO)	IC50 (SARS-COV2 Mpro)	EC50 (HCoV 229E)	CC50 (in vitro)
CC(C)CC(NC(=O)c1nc2ncccc2[nH]1)C(=O)NC(C#N)CC1CCNC1=O (single isomer, unassigned) [130 (Isomer 1)]	> 30 µM				
N#CC1(NC(=O)[C@H](CC2CC2)NC(=O)OCc2ccccc2)C[C@H]2CC[C@@H]1[C@H]1C(=O)NC(=O)[C@@H]21 (single isomer, unassigned) [495 (Isomer 1)]		> 30 µM	> 30 µM		
COc1cccc2[nH]c(C(=O)N3CC4(CCC4)CC3C(=O)N[C@H](C#N)C[C@@H]3CCCNC3=O)cc12 (single isomer, unassigned) [719 (Isomer 2)]		< 22 µM	< 22 µM	< 22 µM	
COc1cccc2[nH]c(C(=O)N[C@@H](CC(C)C)C(=O)N[C@@H](C[C@@H]3CCNC3=O)C(O)C#N)cc12 (stereo partly drawn) [Compound 135, N-[(1S)-1-[[(1S)-2-cyano-2-hydroxy-1-[[(3S)-2-oxopyrrolidin-3-yl]methyl]ethyl]carbamoyl]-3-methyl-butyl]-4-methoxy-1H-indole-2-carboxamide]				< 22 µM	> 30 µM
COc1cccc2[nH]c(C(=O)N3CC(c4ccccc4)CC3C(=O)NC(C#N)CC3CCNC3=O)cc12 (centres unmarked) [Compound 170]					> 30 µM
COc1cccc2[nH]c(C(=O)N[C@@H](CC(C)C)C(=O)N[C@H](C#N)Cc3cncn3C)cc12 [Compound 225, N-[(1S)-1-[[(1S)-1-cyano-2-(3-methylimidazol-4-yl)ethyl]carbamoyl]-3-methyl-butyl]-4-methoxy-1H-indole-2-carboxamide]		> 30 µM	> 30 µM		
N#C[C@H](C[C@@H]1CCNC1=O)NC(=O)[C@H](CC1CC1)n1ccc2[nH]cnc2c1=O [Compound 269]		> 30 µM	> 30 µM		
COc1cccc2[nH]c(C(=O)N[C@@H](CC3CC3)C(=O)N[C@@]3(C#N)CCc4cccnc4C3)cc12 [Compound 279]		> 30 µM	> 30 µM		
COc1cccc2[nH]c(C(=O)N[C@@H](CC(C)C)C(=O)N[C@@H](C[C@@H]3CCNC3=O)C(C#N)Nc3ccccc3)cc12 (some centres unmarked) [Compound 327]		< 22 µM	< 22 µM	2 to 10 µM	
CC[C@H]1CN(C(=O)c2cc3c(OC)cccc3[nH]2)[C@@H]1C(=O)N[C@H](C#N)C[C@@H]1CCNC1=O [Compound 391]		> 30 µM	> 30 µM		
COc1cccc2[nH]c(C(=O)N[C@@H](CC(C)C)C(=O)N[C@H](C#N)Cc3ccccn3)cc12 [Compound 439]		> 30 µM	10 to 30 µM		
N#C[C@H](C[C@@H]1CCNC1=O)NC(=O)[C@@H]1CS[C@H]2CC[C@H](N)C(=O)N21 [Compound 479]		10 to 30 µM	> 30 µM		
N#C[C@H](C[C@@H]1CCNC1=O)NC(=O)[C@@H]1CCc2ccc(NCC(=O)Oc3ccccc3)c(=O)n21 [Compound 483]		> 30 µM	> 30 µM		
N#C[C@H](C[C@@H]1CCNC1=O)NC(=O)[C@@H]1CCc2ccc(NCC(=O)O)c(=O)n21 [Compound 501]		> 30 µM	> 30 µM		
COc1nccc2[nH]c(C(=O)N[C@@H](CC3CC3)C(=O)N[C@H](C#N)C[C@@H]3CCCNC3=O)cc12 [Compound 623]		> 30 µM	> 30 µM		
COc1cccc2[nH]c(C(=O)N[C@@H](CC(C)C)C(=O)N[C@@H](C[C@@H]3CCNC3=O)C(C#N)NCC(=O)O)cc12 (some centres unmarked) [Compound 653]		< 22 µM	< 22 µM	< 22 µM	
COc1cccc2[nH]c(C(=O)N[C@H](CN[C@H](C#N)C[C@@H]3CCNC3=O)CC(C)(C)C)cc12 [Compound 659]		> 30 µM	> 30 µM		
